Laboratory results from PMC5004841, “Development of a rapid phenotypic test for HCV protease inhibitors with potential use in clinical decisions” (Genetics and Molecular Biology, 2016).

How the values were obtained:
[1] = system: HCV NS3-4A protease T54S + V170I; settings: mutant T54S + V170I vs NS3 WT
From the text: (§1) The HCV genotype 1b NS3-4A protease domain from the plasmid pFKI389 Luc-ubi-neo/NS3-3'/ET (kindly provided by Dr. Ralf Bartenschlager) was amplified with the antisense primer 5'-[…]-3'containing a BamHI enzyme restriction site and the sense primer 5'-[…]-3' containing a HindIII enzyme restriction site. This fragment was cloned into a pET21dhis-TEV bacterial expression vector (a pET21d plasmid, which was modified to codify a 6x histidine tag followed by a cleavage site recognized by the Tobacco Etch virus nTev protease at the protein N-terminus). The single chain NS3-4A protease contains the protease domain (182 amino acids) and a 20-aa portion of the cofactor NS4A ([Abrahim-Vieira et al., 2014]).
(§2) Protein expressions were carried out as described previously with some modifications to simplify techniques and to perform the protocol in a smaller inoculum volume ([Abrahim-Vieira et al., 2014]). Transformed BL21 (λDE3) cells were grown at 37°C in 500 mL of LB medium containing […] ampicilin until an OD600 of 0.6-0.8 was reached. Then, cultures were induced with 0.5 mM isopropyl-1-thio-β-D-galactopyranoside (IPTG) and incubated with shaking at 25 °C for 4 h. Cells expressing NS3-4A constructs were harvested by centrifugation and stored at −80 °C. All resuspension steps were performed at 4 °C. Frozen pellets were resuspended in 12.5 mL of buffer A (Tris-HCl 50 mM pH 7.5; NaCl 300 mM; 2 mM β-mercaptoethanol; 10% glycerol; 0.5% Triton X-100). After resuspension, lysates were treated with lysozyme (5 mg/mL) for 1 h with stirring, subjected to 20 cycles of 15 s of sonication and 30 s of resting. Lysates were cleared by centrifugation at 12.000 g for 30 min and the supernatant filtered with 0.22 μM filter units (Nalgene). After filtration, supernatants were applied in 2 mL of Ni-NTA Agarose (Life Technologies) previously washed with distilled water and equilibrated with buffer A. Agarose resin was washed three times with buffer A and recombinant proteins were eluted with buffer A with 125, 250 and 500 mM imidazol (buffer B). […] Fractions were pooled and dialyzed overnight against buffer A with SnakeSkin Dialysis Tubing 10K MWCO (Thermo Scientific). Purified NS3-4A constructs were quantified with Micro BCA Protein Assay Kit (Thermo Scientific).
(§3) All enzyme inhibition assays were performed in nonbinding black surface 96-well plates (Corning).

[2] = system: HCV NS3-4A protease V36M; settings: mutant V36M vs NS3 WT
From the text: as §1, §2, §3

[3] = system: HCV NS3-4A protease V158I; settings: mutant V158I vs NS3 WT
From the text: as §1, §2, §3

[4] = system: HCV NS3-4A protease T54A; settings: mutant T54A vs NS3 WT
From the text: as §1, §2, §3

[5] = system: HCV NS3-4A protease V170I; settings: mutant V170I vs NS3 WT
From the text: as §1, §2, §3

[6] = target: T1, HCV genotype 1b NS3-4A protease WT (Hepatitis C virus genotype 1b, UniProt Q9WMX2); assay: FRET enzyme inhibition assay, NS3 WT (SensoLyte 520 HCV protease assay Kit); format: biochemical, hepatitis C virus (HCV) genotype 1b
T1 construct: covalently joined to the NS3 protease domain (aa 1-182) via an amino acid linker GSGS; 6x histidine tag (N); TEV protease cleavage site (N); NS4A central peptide (NS4A aa 21-32), fused N-terminally of NS3; made in house; host or cells: E. coli BL21 (λDE3)
T1 sequence (Q9WMX2 1027-1208 limits assumed): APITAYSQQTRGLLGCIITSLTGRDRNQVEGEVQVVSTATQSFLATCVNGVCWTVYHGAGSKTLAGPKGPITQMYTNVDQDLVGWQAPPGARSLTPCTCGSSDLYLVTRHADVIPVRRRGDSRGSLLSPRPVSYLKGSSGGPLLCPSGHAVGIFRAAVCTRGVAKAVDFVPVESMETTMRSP
From the text: as §1
Protein expressions were carried out as described previously with some modifications to simplify techniques and to perform the protocol in a smaller inoculum volume ([Abrahim-Vieira et al., 2014]). Transformed BL21 (λDE3) cells were grown at 37°C in 500 mL of LB medium containing […] ampicilin until an OD600 of 0.6-0.8 was reached. Then, cultures were induced with 0.5 mM isopropyl-1-thio-β-D-galactopyranoside (IPTG) and incubated with shaking at 25 °C for 4 h. Cells expressing NS3-4A constructs were harvested by centrifugation and stored at −80 °C. […] Purified NS3-4A constructs were quantified with Micro BCA Protein Assay Kit (Thermo Scientific). […]

Compound | fold change (mutant IC50 median/WT IC50 median) [1] | fold change (mutant IC50 median/WT IC50 median) [2] | fold change (mutant IC50 median/WT IC50 median) [3] | fold change (mutant IC50 median/WT IC50 median) [4] | fold change (mutant IC50 median/WT IC50 median) [5] | IC50 [6]
COc1ccc2c(O[C@@H]3C[C@H]4C(=O)N[C@]5(C(=O)NS(=O)(=O)C6CC6)C[C@H]5/C=C\CCCCN(C)C(=O)[C@@H]4C3)cc(-c3nc(C(C)C)cs3)nc2c1C [Simeprevir] | 3.8 fold | 0.4 fold | 0.1 fold | 6.3 fold | 3.2 fold | 17 nM
CCC[C@H](NC(=O)[C@@H]1[C@H]2CCC[C@H]2CN1C(=O)[C@@H](NC(=O)[C@@H](NC(=O)c1cnccn1)C1CCCCC1)C(C)(C)C)C(=O)C(=O)NC1CC1 [Telaprevir] | – | – | – | – | – | 130 nM
